System: 186277-243-T-J2-PDC complex spheroid viability
Assay: Anticancer human tumor 186277-243-T-J2-PDC patient-derived colon adenocarcinoma cell line growth inhibition [POLQ]
Details: for IC50: curve of first compound; for viability, T/C: stronger effect = lower value
Description: Multicellular complex tumor spheroid response to Polymerase (POL) inhibitors (novobiocin, ART-558, RP6685) in combination with a variety of drugs and investigational agents in selected tumor cell lines
The POL inhibitors (novobiocin, ART-558, and RP6685) were evaluated both individually and in combination with standard of care and investigational anticancer small molecules within a complex spheroid model of solid tumors. . Complex spheroids include a stromal component modeled by human endothelial cells (HUVEC) and fibroblasts modeled by human mesenchymal stem cells (MSCs). The concentration ranges selected for each drug and investigational agent were based upon clinically achievable concentrations if the clinical Cmax of the agent was known.
Compounds. The drugs and investigational agents: novobiocin (NSC847541), ART-558 (NSC835418), RP-6685 (NSC848927), peposertib (NSC802822), ceralasertib (NSC780249), elimusertib (NSC800525), camonsertib (NSC841442), AZD-1390 (NSC803789), olaparib (NSC753686), talazoparib (NSC767125), rucaparib (NSC756644), sotorasib (NSC818433), MRTX-1133 (NSC836407), SN-38 (NSC673596), topotecan (NSC609699), epotoside (NSC141540), doxorubicin (NSC123127), gemcitabine (NSC613327), 5-fluorouracil (NSC19893), paclitaxel (NSC125973), vemurafenib (NSC761431), MSA-2 (NSC828583), SN-011 (NSC837082), adavosertib (NSC754352), prexasertib (NSC758257), carboplatin (NSC241240) and oxaliplatin (NSC266046), were obtained from the National Cancer Institute (NCI) Developmental Therapeutics Program Chemical Repository (21). The FDA-approved anticancer drug set is available from the Developmental Therapeutics Program at https://dtp.cancer.gov/organization/dscb/obtaining/. […] The stock solutions were prepared in dimethyl sulfoxide (DMSO, Sigma-Aldrich, St. Louis, MO, cat. D2650), except for the platinum compounds which were prepared in saline (Quality Biological, Gaithersburg, MD, cat. 114-055-101), at 800-fold the tested concentration and stored at -70 degrees C prior to their use. All drugs and investigational agents were tested over a range starting from a high concentration at or near the clinical Cmax and decreasing in half-log increments. If the clinical Cmax for an agent had not been determined, the highest concentration tested was 10 microM, except for SN-38, which was tested at a high concentration of 1 microM.
Cell Culture. All cells were maintained in an incubator at 37 degrees C and 5% CO2 with 95% humidity. The PDC lines were cultured according to standard operating procedures established by the NCI PDMR (https://pdmr.cancer.gov). Table 3 of the manuscript, lists the cell lines along with the number of the three cell types plated to form the mct-spheroids and media for tumor cell growth. After thawing, all PDC lines, except 997537-175-T-J1-PDC and 415267-285-R-J2-PDC, were cultured in Matrigel-coated flasks prepared with a working solution of 1X Ham's F-12 nutrient mix, without supplementation (Thermo Fisher Scientific, cat. 11765054), 100 U/mL penicillin-streptomycin (Thermo Fisher Scientific, cat. 15140122), and 2.5% Matrigel (Corning Inc., Corning, NY, cat. 354248) for the first three passages. The two PDC lines 997537-175-T-J1-PDC and 415267-285-R-J2-PDC were cultured on uncoated flasks. The 857933-349-R-J2-PDC line was cultured in 6C/Colon 1B media containing advanced DMEM/F-12 (Thermo Fisher Scientific, cat. 12634028), 10 mM HEPES (Thermo Fisher Scientific, cat. 15630080), 1X GlutaMAX supplement (Thermo Fisher Scientific, cat. 35050061), 0.1 mg/mL primocin (InvivoGen, San Diego, CA, cat. ant-pm-2), 10% defined fetal bovine serum, heat inactivated (HyClone Laboratories Inc., Logan, UT, cat. SH30070.03HI), 50% L-WRN conditioned media (ATCC, cat. CRL-3276), 1.25 mM N-Acetyl-L-cysteine (Sigma-Aldrich, cat. A9165), 10 mM nicotinamide (Sigma-Aldrich, cat. N0636), 1X B-27 supplement (Thermo Fisher Scientific, cat. 17504044), 1X N-2 supplement (Thermo Fisher Scientific, cat. […]

[1] = second compound 0.0316 µM, first compound 0.0316 µM
[2] = second compound 0.0316 µM, first compound 0.1 µM
[3] = second compound 0.0316 µM, first compound 0.316 µM
[4] = second compound 0.0316 µM, first compound 1 µM
[5] = second compound 0.0316 µM, first compound 3.16 µM
[6] = second compound 0.0316 µM, first compound 10 µM
[7] = second compound 0.1 µM, first compound 0.0316 µM
[8] = second compound 0.1 µM, first compound 0.1 µM
[9] = second compound 0.1 µM, first compound 0.316 µM
[10] = second compound 0.1 µM, first compound 1 µM
[11] = second compound 0.1 µM, first compound 3.16 µM
[12] = second compound 0.1 µM, first compound 10 µM
[13] = second compound 0.316 µM, first compound 0.0316 µM
[14] = second compound 0.316 µM, first compound 0.1 µM
[15] = second compound 0.316 µM, first compound 0.316 µM
[16] = second compound 0.316 µM, first compound 1 µM
[17] = second compound 0.316 µM, first compound 3.16 µM
[18] = second compound 0.316 µM, first compound 10 µM
[19] = second compound 1 µM, first compound 0.0316 µM
[20] = second compound 1 µM, first compound 0.1 µM
[21] = second compound 1 µM, first compound 0.316 µM
[22] = second compound 1 µM, first compound 1 µM
[23] = second compound 1 µM, first compound 3.16 µM
[24] = second compound 1 µM, first compound 10 µM
[25] = second compound 3.16 µM, first compound 0.0316 µM
[26] = second compound 3.16 µM, first compound 0.1 µM
[27] = second compound 3.16 µM, first compound 0.316 µM
[28] = second compound 3.16 µM, first compound 1 µM
[29] = second compound 3.16 µM, first compound 3.16 µM
[30] = second compound 3.16 µM, first compound 10 µM
[31] = second compound 10 µM, first compound 0.0316 µM
[32] = second compound 10 µM, first compound 0.1 µM
[33] = second compound 10 µM, first compound 0.316 µM
[34] = second compound 10 µM, first compound 1 µM
[35] = second compound 10 µM, first compound 3.16 µM
[36] = second compound 10 µM, first compound 10 µM
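Also: spheroids exposed to compounds for seven days.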
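For viability, T/C in this document: 100% = DMSO vehicle control viability.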

C#Cc1c(F)ccc2cc(O)cc(-c3ncc4c(N5CC6CCC(C5)N6)nc(OCC56CCCN5CC(F)C6)nc4c3F)c12 (stereo not drawn) + COC1C(OC(N)=O)C(O)C(Oc2ccc3c(O)c(NC(=O)c4ccc(O)c(CC=C(C)C)c4)c(=O)oc3c2C)OC1(C)C
IC50 (second compound 0.0316 µM): 0.0881 µM
IC50 (second compound 0.1 µM): 0.0919 µM
IC50 (second compound 0.316 µM): 0.098 µM
IC50 (second compound 1 µM): 0.0955 µM
IC50 (second compound 3.16 µM): 0.0882 µM
IC50 (second compound 10 µM): 0.0746 µM
viability, T/C [1]: 78.8%
viability, T/C [2]: 47.2%
viability, T/C [3]: 17.3%
viability, T/C [4]: 13.3%
viability, T/C [5]: 5.89%
viability, T/C [6]: 3.8%
viability, T/C [7]: 73.6%
viability, T/C [8]: 48.1%
viability, T/C [9]: 24.4%
viability, T/C [10]: 10.3%
viability, T/C [11]: 8.42%
viability, T/C [12]: 3.79%
viability, T/C [13]: 87.3%
viability, T/C [14]: 49.5%
viability, T/C [15]: 21.1%
viability, T/C [16]: 9.93%
viability, T/C [17]: 5.5%
viability, T/C [18]: 3.94%
viability, T/C [19]: 92.4%
viability, T/C [20]: 48.4%
viability, T/C [21]: 15.6%
viability, T/C [22]: 8.5%
viability, T/C [23]: 5.97%
viability, T/C [24]: 3.63%
viability, T/C [25]: 73.6%
viability, T/C [26]: 47.1%
viability, T/C [27]: 19.5%
viability, T/C [28]: 7.53%
viability, T/C [29]: 5.69%
viability, T/C [30]: 3.42%
viability, T/C [31]: 74.3%
viability, T/C [32]: 42%
viability, T/C [33]: 18%
viability, T/C [34]: 9.65%
viability, T/C [35]: 8.31%
viability, T/C [36]: 3.67%

CC1COCCN1c1cc(-c2ccnn2C)c2ccnc(-c3ccn[nH]3)c2n1 (stereo not drawn) + COC1C(OC(N)=O)C(O)C(Oc2ccc3c(O)c(NC(=O)c4ccc(O)c(CC=C(C)C)c4)c(=O)oc3c2C)OC1(C)C
IC50 (second compound 0.0316 µM): 0.0426 µM
IC50 (second compound 0.1 µM): 0.0458 µM
IC50 (second compound 0.316 µM): 0.0456 µM
IC50 (second compound 1 µM): 0.0474 µM
IC50 (second compound 3.16 µM): 0.0428 µM
IC50 (second compound 10 µM): 0.0512 µM
viability, T/C [1]: 63.9%
viability, T/C [2]: 10.3%
viability, T/C [3]: 4.76%
viability, T/C [4]: 4.28%
viability, T/C [5]: 3.3%
viability, T/C [6]: 3.81%
viability, T/C [7]: 68.6%
viability, T/C [8]: 10.9%
viability, T/C [9]: 4.88%
viability, T/C [10]: 3.51%
viability, T/C [11]: 2.82%
viability, T/C [12]: 3.8%
viability, T/C [13]: 67.6%
viability, T/C [14]: 12.2%
viability, T/C [15]: 4.58%
viability, T/C [16]: 3.36%
viability, T/C [17]: 2.79%
viability, T/C [18]: 3.64%
viability, T/C [19]: 71%
viability, T/C [20]: 11.4%
viability, T/C [21]: 5.31%
viability, T/C [22]: 3.57%
viability, T/C [23]: 3.29%
viability, T/C [24]: 4.22%
viability, T/C [25]: 63.9%
viability, T/C [26]: 11.1%
viability, T/C [27]: 4.98%
viability, T/C [28]: 3.47%
viability, T/C [29]: 4.1%
viability, T/C [30]: 3.47%
viability, T/C [31]: 77.8%
viability, T/C [32]: 11.6%
viability, T/C [33]: 5.41%
viability, T/C [34]: 3.59%
viability, T/C [35]: 4.37%
viability, T/C [36]: 3.76%

CCCS(=O)(=O)Nc1ccc(F)c(C(=O)c2c[nH]c3ncc(-c4ccc(Cl)cc4)cc23)c1F + COC1C(OC(N)=O)C(O)C(Oc2ccc3c(O)c(NC(=O)c4ccc(O)c(CC=C(C)C)c4)c(=O)oc3c2C)OC1(C)C
IC50 (second compound 0.0316 µM): 8.12 µM
IC50 (second compound 0.1 µM): 7.84 µM
IC50 (second compound 0.316 µM): > 10 µM
IC50 (second compound 1 µM): 7.81 µM
IC50 (second compound 3.16 µM): 9.15 µM
IC50 (second compound 10 µM): > 10 µM
viability, T/C [1]: 95%
viability, T/C [2]: 90%
viability, T/C [3]: 86.5%
viability, T/C [4]: 93.4%
viability, T/C [5]: 88.5%
viability, T/C [6]: 41.5%
viability, T/C [7]: 98.4%
viability, T/C [8]: 76.9%
viability, T/C [9]: 96.2%
viability, T/C [10]: 79.7%
viability, T/C [11]: 87.7%
viability, T/C [12]: 39.9%
viability, T/C [13]: 91.4%
viability, T/C [14]: 90.4%
viability, T/C [15]: 89.7%
viability, T/C [16]: 92.8%
viability, T/C [17]: 101%
viability, T/C [18]: 52%
viability, T/C [19]: 91.2%
viability, T/C [20]: 97.2%
viability, T/C [21]: 86.6%
viability, T/C [22]: 86.8%
viability, T/C [23]: 97.6%
viability, T/C [24]: 38.5%
viability, T/C [25]: 92.2%
viability, T/C [26]: 96.6%
viability, T/C [27]: 93.5%
viability, T/C [28]: 90.6%
viability, T/C [29]: 88%
viability, T/C [30]: 46.7%
viability, T/C [31]: 118%
viability, T/C [32]: 89.7%
viability, T/C [33]: 93.6%
viability, T/C [34]: 94%
viability, T/C [35]: 92%
viability, T/C [36]: 50.3%

O=c1[nH]cc(F)c(=O)[nH]1 + COC1C(OC(N)=O)C(O)C(Oc2ccc3c(O)c(NC(=O)c4ccc(O)c(CC=C(C)C)c4)c(=O)oc3c2C)OC1(C)C
IC50 (second compound 0.0316 µM): > 10 µM
IC50 (second compound 0.1 µM): > 10 µM
IC50 (second compound 0.316 µM): > 10 µM
IC50 (second compound 1 µM): 9.82 µM
IC50 (second compound 3.16 µM): 9.69 µM
IC50 (second compound 10 µM): 9.8 µM
viability, T/C [1]: 88%
viability, T/C [2]: 100%
viability, T/C [3]: 104%
viability, T/C [4]: 106%
viability, T/C [5]: 70%
viability, T/C [6]: 49.9%
viability, T/C [7]: 92%
viability, T/C [8]: 105%
viability, T/C [9]: 104%
viability, T/C [10]: 100%
viability, T/C [11]: 70%
viability, T/C [12]: 52%
viability, T/C [13]: 104%
viability, T/C [14]: 108%
viability, T/C [15]: 114%
viability, T/C [16]: 119%
viability, T/C [17]: 69.3%
viability, T/C [18]: 49.6%
viability, T/C [19]: 109%
viability, T/C [20]: 111%
viability, T/C [21]: 86.2%
viability, T/C [22]: 102%
viability, T/C [23]: 69%
viability, T/C [24]: 49.8%
viability, T/C [25]: 102%
viability, T/C [26]: 115%
viability, T/C [27]: 109%
viability, T/C [28]: 107%
viability, T/C [29]: 66.9%
viability, T/C [30]: 49.1%
viability, T/C [31]: 117%
viability, T/C [32]: 97.2%
viability, T/C [33]: 108%
viability, T/C [34]: 105%
viability, T/C [35]: 73.5%
viability, T/C [36]: 49.6%
